Test results published in patent US12240827B2, “Serotonin 5-HT2B inhibitory compounds” (Zoetis Services LLC, priority 2019, dated 2025).

What was measured:
[1] = biological target: T1, hERG (Homo sapiens, UniProt Q12809); experiment: hERG in-vitro assay, IonWorks Barracuda population patch clamp; assay type: cell-based; settings: hERG/HEK293 cells; hERG current block, 5 minutes exposure
T1 construct: stably transfected with full length hERG cDNA; expressed in transfected cells; host or cells: HEK293
T1 sequence (Q12809 whole entry): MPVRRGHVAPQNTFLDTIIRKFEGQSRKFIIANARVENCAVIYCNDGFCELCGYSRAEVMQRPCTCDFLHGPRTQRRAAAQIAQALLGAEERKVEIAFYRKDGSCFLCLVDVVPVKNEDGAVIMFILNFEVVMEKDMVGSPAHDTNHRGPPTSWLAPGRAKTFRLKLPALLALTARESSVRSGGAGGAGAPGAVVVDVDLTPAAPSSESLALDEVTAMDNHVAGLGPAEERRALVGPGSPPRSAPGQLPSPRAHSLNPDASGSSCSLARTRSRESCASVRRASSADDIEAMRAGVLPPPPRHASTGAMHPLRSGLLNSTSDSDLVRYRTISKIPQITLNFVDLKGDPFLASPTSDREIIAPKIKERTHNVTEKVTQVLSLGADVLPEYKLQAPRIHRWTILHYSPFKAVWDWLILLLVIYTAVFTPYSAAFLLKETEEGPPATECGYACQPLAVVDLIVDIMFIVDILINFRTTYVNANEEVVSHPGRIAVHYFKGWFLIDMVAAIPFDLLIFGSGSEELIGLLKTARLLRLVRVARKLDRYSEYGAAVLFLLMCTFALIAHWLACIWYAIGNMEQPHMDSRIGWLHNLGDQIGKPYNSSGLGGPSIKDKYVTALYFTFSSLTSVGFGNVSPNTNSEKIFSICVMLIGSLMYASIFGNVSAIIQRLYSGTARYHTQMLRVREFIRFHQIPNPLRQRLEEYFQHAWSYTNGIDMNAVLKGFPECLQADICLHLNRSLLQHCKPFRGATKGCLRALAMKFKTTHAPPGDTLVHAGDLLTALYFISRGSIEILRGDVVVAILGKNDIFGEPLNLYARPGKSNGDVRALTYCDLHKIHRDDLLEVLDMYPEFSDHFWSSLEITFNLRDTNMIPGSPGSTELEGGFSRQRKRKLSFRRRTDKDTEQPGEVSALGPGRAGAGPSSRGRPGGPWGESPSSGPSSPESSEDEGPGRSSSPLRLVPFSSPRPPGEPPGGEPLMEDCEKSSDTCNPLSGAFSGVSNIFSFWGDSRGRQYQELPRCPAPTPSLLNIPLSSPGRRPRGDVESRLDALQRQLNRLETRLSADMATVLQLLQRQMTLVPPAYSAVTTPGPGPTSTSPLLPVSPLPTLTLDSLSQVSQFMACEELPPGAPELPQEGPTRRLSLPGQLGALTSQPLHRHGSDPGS
Experimental: Stock solutions of compounds of the invention and positive control (cisapride; 0.001-3 μM) were prepared in DMSO. Stock solutions were diluted in a HEPES-buffered physiological saline solution. Test and control solutions contained 0.3% DMSO. Human hERG/HEK293 renal epithelial cells stably transfected with full length hERG cDNA were cultured in Dulbecco's Modified Eagle Medium/Nutrient Mixture F-12 (D-MEM/F-12) supplemented with 10% fetal bovine serum, 100 U/mL penicillin G sodium, 100 μg/mL streptomycin sulfate and 500 μg/mL G418. Before testing, cells in culture dishes were rinsed with Hank's Balanced Salt Solution (HBSS) and detached with accutase. Immediately before use in the IonWorks Barracuda™ system, the cells were washed with buffered physiological saline solution (HB-PS) buffer to remove the accutase and re-suspended in 5 mL of HB-PS. The test article effects were evaluated using IonWorks Barracuda™ systems (Molecular Devices Corporation, Union City, CA). HEPES-buffered intracellular solution for whole cell recordings was loaded into the intracellular compartment of the Population Patch Clamp™ (PPC) planar electrode.
Extracellular buffer (HB-PS) was loaded into PPC planar electrode plate wells (11 μL/well). The cell suspension was pipetted into the wells of the PPC planar electrode (9 μL/well). After establishment of a whole-cell configuration (the perforated patch), membrane currents were recorded using patch clamp amplifier in the IonWorks Barracuda™ system. The current recordings were performed one (1) time before test article application to the cells (baseline) and one (1) time after application of the test article. Test article concentrations were applied to naïve cells. Each application consisted of addition of 20 μL of 2× concentrated test article solution to the total 40 μL of final volume of the extracellular well of the PPC plate. Duration of exposure to each compound concentration was five (5) minutes. hERG current was elicited using a pulse pattern with fixed amplitudes (the first conditioning pre-pulse to 10 mV for 60 second, the second conditioning pre-pulse: −90 mV for 20 ms; the test pulse: +40 mV for 100 ms) from a holding potential of 0 mV (‘zero holding’ procedure). hERG current was measured as a difference between the peak current at 1 ms and at the end of test step to +40 mV. Data acquisition and analyses were performed using the IonWorks Barracuda™ system operation software (version 2.0.2). The decrease in current amplitude after test article application was used to calculate the percent block relative to control. Results for each test article concentration (n≥1) were averaged; the mean and standard deviation values were calculated and used to generate dose-response curves.

[2] = biological target: T2, canine 5-HT2B receptor (Canis lupus familiaris, UniProt Q50DZ8); experiment: Canine 5-HT2B (c5-HT2B) in-vitro assay, FLIPR calcium response; assay type: cell-based; settings: CHO-K1 cells stably expressing canine 5-HT2B receptor; inhibition of EC80 serotonin calcium response
T2 construct: expressed in transfected cells; host or cells: CHO-K1
T2 sequence (Q50DZ8 1-434): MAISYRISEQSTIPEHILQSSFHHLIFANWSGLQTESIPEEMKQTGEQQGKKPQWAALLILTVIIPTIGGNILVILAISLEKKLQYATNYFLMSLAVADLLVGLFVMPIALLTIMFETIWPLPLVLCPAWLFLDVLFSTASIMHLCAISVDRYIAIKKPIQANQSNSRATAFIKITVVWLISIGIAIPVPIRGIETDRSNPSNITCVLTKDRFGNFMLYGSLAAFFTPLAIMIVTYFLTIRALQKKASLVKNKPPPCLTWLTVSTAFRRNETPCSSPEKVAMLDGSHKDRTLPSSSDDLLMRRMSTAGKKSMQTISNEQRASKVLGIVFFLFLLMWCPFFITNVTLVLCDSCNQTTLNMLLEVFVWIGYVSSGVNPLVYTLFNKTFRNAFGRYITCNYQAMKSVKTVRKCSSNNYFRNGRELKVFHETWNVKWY
Experimental: CHO-K1 cells stably expressing the canine 5-HT2B receptor were seeded at 20,000 cells per well in 20 μl culture media (DMEM with GlutaMAX™ high glucose+5% dialyzed FBS+10 mM HEPES+1×MEM Non-Essential Amino Acids of a 384-well black plate with clear bottom for at least 18 hours at 37° C. and 5% CO2. The cell plate was loaded with 20 μl/well of the FLIPR® Calcium 5 Assay kit prepared in HBSS containing calcium and magnesium supplemented with 20 mM HEPES and 5 mM Probenecid at pH 7.4 and incubated at 37° C. and 5% CO2 for 30 minutes and then an additional 30 minutes at room temperature. The intracellular calcium response was measured using the FLIPR Tetra® instrument measuring the kinetic response of the Calcium 5 dye at an excitation wavelength of 470-495 nm and emission wavelength of 515-575 nm at room temperature. The cells were initially challenged with a 5× concentration of the antagonist (10 μl/well) after an initial baseline recording and the calcium response was recorded for almost 2 minutes. After the completion of the initial antagonist challenge, the cell plate was incubated at room temperature in the FLIPR Tetra® instrument for 10 minutes. Finally, a second kinetic assay was performed after the 10 minute incubation at room temperature to measure the inhibitory response of the EC80 concentration of serotonin (15 μl/well) after an initial baseline recording. The IC50 concentration was determined for each antagonist tested.

| SMILES | IC50 [1] [nM] | IC50 [2] [nM] |
| --- | --- | --- |
| O=C(c1ccc(-c2cc3ccccc3[nH]2)cc1)N1CCC(c2ncc[nH]2)CC1 [Example 30, (4-(1H-imidazol-2-yl)piperidin-1-yl)(4-(1H-indol-2-yl)phenyl)methanone] | 11000 | 1.95 |
| O=C(c1ccc(-c2ccccc2)cc1)N1CCC(c2ncc[nH]2)CC1 [CA-3, (4-(1H-imidazol-2-yl)piperidin-1-yl)([1,1′-biphenyl]-4-yl)methanone, reference compound] | 611 | 0.64 |
| O=C(c1ccc(-c2cccc(Cl)c2)cc1)N1CCC(c2ncc[nH]2)CC1 [Example 10, (4-(1H-imidazol-2-yl)piperidin-1-yl)(3′-chloro-[1,1′-biphenyl]-4-yl)methanone] | 2770 | 0.51 |
| O=C(c1ccc(-c2ccc(F)cc2)cc1)N1CCC(Cc2ncc[nH]2)CC1 [CA-1, (4-((1H-imidazol-2-yl)methyl)piperidin-1-yl)(4′-fluoro-[1,1′-biphenyl]-4-yl)methanone, reference compound] | 546 | 0.3 |
| O=C(c1ccc2c(-c3ccccc3)c[nH]c2c1)N1CCC(c2ncc[nH]2)CC1 [Example 32, (4-(1H-imidazol-2-yl)piperidin-1-yl)(3-phenyl-1H-indol-6-yl)methanone] | 15200 | 7.3 |
| Cc1c[nH]c(C2CCN(C(=O)c3ccc(-c4c(C)[nH]c5ccccc45)cc3)CC2)n1 [Example 26, (4-(4-methyl-1H-imidazol-2-yl)piperidin-1-yl)(4-(2-methyl-1H-indol-3-yl)phenyl)methanone] | 13100 | 0.84 |
| Cc1cnc(C2CCN(C(=O)c3ccc(-c4ccc5cc[nH]c5c4)cc3)CC2)[nH]1 [Example 27, (4-(1H-indol-6-yl)phenyl)(4-(5-methyl-1H-imidazol-2-yl)piperidin-1-yl)methanone] | 9280 | 1.1 |
| O=C(c1ccc(Oc2ccccc2)cc1)N1CCC(c2ncc[nH]2)CC1 [Example 8, (4-(1H-imidazol-2-yl)piperidin-1-yl)(4-phenoxyphenyl)methanone] | 3140 | 0.64 |
| Cc1cnc(C2CCN(C(=O)c3ccc(-c4ccc(C(F)(F)F)cc4)cc3)CC2)[nH]1 [Example 4, (4-(5-methyl-1H-imidazol-2-yl)piperidin-1-yl)(4′-(trifluoromethyl)-[1,1′-biphenyl]-4-yl)methanone] | 1130 | 21.9 |
| O=C(c1ccc(-c2ccc3c(c2)OCO3)cc1)N1CCC(c2ncc[nH]2)CC1 [Example 13, (4-(1H-imidazol-2-yl)piperidin-1-yl)(4-(benzo[d][1,3]dioxol-5-yl)phenyl)methanone] | 1730 | 1.4 |
| O=C(c1ccc2c(c1)[nH]c1ccccc12)N1CCC(c2ncc[nH]2)CC1 [Example 14, (4-(1H-imidazol-2-yl)piperidin-1-yl)(9H-carbazol-2-yl)methanone] | 5720 | 1.3 |
| O=C(c1ccc(-c2ccccc2F)cc1)N1CCC(c2ncc[nH]2)CC1 [CA-7, (4-(1H-imidazol-2-yl)piperidin-1-yl)(2′-fluoro-[1,1′-biphenyl]-4-yl)methanone, reference compound] | 1100 | 0.09 |
| O=C(c1ccc(-c2ccc(C(F)F)cc2)cc1)N1CCC(c2ncc[nH]2)CC1 [Example 16, (4-(1H-imidazol-2-yl)piperidin-1-yl)(4′-(difluoromethyl)-[1,1′-biphenyl]-4-yl)methanone] | 2740 | 0.31 |
| O=C(c1ccc(-c2ccc(F)cc2)cc1)N1CCC(c2ncc[nH]2)CC1 [CA-4, (4-(1H-imidazol-2-yl)piperidin-1-yl)(4′-fluoro-[1,1′-biphenyl]-4-yl)methanone, reference compound] | < 30 | 0.08 |
| O=C(c1ccc(-n2ccc3ccccc32)cc1)N1CCC(c2ncc[nH]2)CC1 [Example 18, (4-(1H-imidazol-2-yl)piperidin-1-yl)(4-(1H-indol-1-yl)phenyl)methanone] | 3400 | 0.01 |
| O=C(c1ccc(-c2ccc(F)cc2)cc1)N1CCC(Nc2ncc[nH]2)CC1 [Example 1, (4-((1H-imidazol-2-yl)amino)piperidin-1-yl)(4′-fluoro-[1,1′-biphenyl]-4-yl)methanone] | 1540 | 2 |
| Cc1cnc(C2CCN(C(=O)c3ccc4c(-c5ccccc5)c[nH]c4c3)CC2)[nH]1 [Example 31, (4-(5-methyl-1H-imidazol-2-yl)piperidin-1-yl)(3-phenyl-1H-indol-6-yl)methanone] | 19600 | 4.5 |
| Cc1c[nH]c(C2CCN(C(=O)c3ccc(-c4ccc(F)cc4)cc3)CC2)n1 [CA-6, (4′-fluoro-[1,1′-biphenyl]-4-yl)(4-(4-methyl-1H-imidazol-2-yl)piperidin-1-yl)methanone, reference compound] | < 30 | 7.3 |
| O=C(c1ccc2c(c1)oc1ccccc12)N1CCC(c2ncc[nH]2)CC1 [Example 15, (4-(1H-imidazol-2-yl)piperidin-1-yl)(dibenzo[b,d]furan-3-yl)methanone] | 2010 | 0.65 |
| O=C(c1ccc(-c2cccc3c2OCO3)cc1)N1CCC(c2ncc[nH]2)CC1 [Example 20, (4-(1H-imidazol-2-yl)piperidin-1-yl)(4-(benzo[d][1,3]dioxol-4-yl)phenyl)methanone] | 3390 | 0.01 |
| N#Cc1ccc(-c2ccc(C(=O)N3CCC(c4ncc[nH]4)CC3)cc2)cc1 [CA-5, 4′-(4-(1H-imidazol-2-yl)piperidine-1-carbonyl)-[1,1′-biphenyl]-4-carbonitrile, reference compound] | 54 | 453 |
| CS(=O)(=O)c1cccc(-c2ccc(C(=O)N3CCC(c4ncc[nH]4)CC3)cc2)c1 [Example 2, (4-(1H-imidazol-2-yl)piperidin-1-yl)(3′-(methylsulfonyl)-[1,1′-biphenyl]-4-yl)methanone] | 72300 | 52.3 |
| O=C(c1ccc(-c2ccc(C(F)F)cc2)cc1)N1CCC(Nc2ncc[nH]2)CC1 [Example 33, (4-((1H-imidazol-2-yl)amino)piperidin-1-yl)(4′-(difluoromethyl)-[1,1′-biphenyl]-4-yl)methanone] | 5290 | 18.6 |
| O=C(c1ccc(-c2cccc3[nH]ccc23)cc1)N1CCC(c2ncc[nH]2)CC1 [Example 17, (4-(1H-imidazol-2-yl)piperidin-1-yl)(4-(1H-indol-4-yl)phenyl)methanone] | 5870 | 0.04 |
| O=C(c1ccc(Nc2ccccc2)cc1)N1CCC(c2ncc[nH]2)CC1 [Example 9, (4-(1H-imidazol-2-yl)piperidin-1-yl)(4-(phenylamino)phenyl)methanone] | 3850 | 0.42 |
| O=C(c1ccc(-c2ccc(C(F)(F)F)cc2)cc1)N1CCC(c2ncc[nH]2)CC1 [Example 3, (4-(1H-imidazol-2-yl)piperidin-1-yl)(4′-(trifluoromethyl)-[1,1′-biphenyl]-4-yl)methanone] | 3480 | 5.1 |
| Cc1c[nH]c(C2CCN(C(=O)c3ccc(-c4c[nH]c5ccc(F)cc45)cc3)CC2)n1 [Example 34, (4-(5-fluoro-1H-indol-3-yl)phenyl)(4-(4-methyl-1H-imidazol-2-yl)piperidin-1-yl)methanone] | 13900 | 21 |
